Laboratory results published in patent publication US20240091267A1, “PRE-TREATMENT OF MSC WITH PPARB/DELTA AGONIST FOR TREATMENT OF ISCHEMIA-REPERFUSION INJURY” (Universite de Montpellier, priority 2020, published 2024).
Read-outs that look alike come from different tables or passages of the source.

What was measured:
[1] = 3 mg/kg/day, mice; cited from earlier work
[2] = 3 mg/kg/day, rats; cited from earlier work
[3] = tested on: isolated perfused hearts from C57B16 mice; assay: Ex vivo Langendorff ischemia-reperfusion, infarct size, effect of preconditioning duration (Example 3); design: species or system mouse (C57BL/6); conditions: 4.10^5 cells/heart; for Decrease in infarct size: vs IR
[4] = tested on: cardiomyoblast cell line H9c2; conditions: H9c2 cardiomyoblasts; cited from earlier work
H9c2 cardiomyocytes = assay: Transwell co-culture of MSC with H9c2 exposed to H2O2, specific DNA fragmentation in H9c2; assay type: cell-based, rattus norvegicus; conditions: vs naive MSC
Protocol: FIG. 7: Increased anti-apoptotic effects of PPARβ/δ-primed MSC on cardiomyocytes. (A) After 24 hours of MSC pharmacological preconditioning using PPARβ/δ agonist, cells were co-cultured using transwells (upper chamber) with H9c2 (lower chamber). Both cultures were exposed to 4 hours of 350 μM of H2O2 in minimal medium (serum deprivation). At the end of the protocol, specific DNA fragmentation was quantified in H9c2 cells and values were compared with those obtained for co-cultures with naive MSC or MSC pre-treated with PPARβ/δ antagonists (GSK0660 or GSK03787) and exposed to 350 H2O2μM (B, C, D) Scatter dot plot and bars were presented for specific DNA fragmentation quantified in H9c2 at the end of the protocols. Data (mean±SD for each group of treatment) were normalized by values obtained with naive MSC/H2O2 and compared using Kruskal-Wallis (Dunn's post hoc test). (B): data were obtained using the condition 1 protocol. (C): the condition 2 protocol P was followed and p value was noted **** for p<0.0001 (MSC, n=16 independent cultures vs MSC/H2O2, n=18). For the data obtained with condition 3 protocol (D), p value was noted * for p=0.0436 (MSC+1 μM GSK0660/H2O2, n=6 vs MSC/H2O2, n=10).
H9c2, rattus norvegicus cardiomyocytes, were cultured in Dulbecco's modified Eagle's medium (DMEM), supplemented with 10% fetal bovine serum (FBS), 100 Units/mL penicillin, and 100 μg/mL streptomycin. To induce apoptosis, H9c2 were cultured in a minimal medium (without FBS) containing 350 μM of H2O2 during 4 hours. In order to evaluate the effect of MSCs on cardiomyocytes, a co-culture assay was designed using the transwell system to avoid cell-cell contact. 15,000 cardiomyocytes (lower part) were plated per well of a 12-well dish with or 15,000 MSC (upper part) in presence of 350 OA of H2O2. Two different protocols of co-culture were performed. In protocol 1, H9c2 and co-cultured MSC were exposed to H2O2(with serum deprivation). In protocol 2, H9c2 were exposed to H2O2 in minimal medium during 4 hours and after a wash, cells were co-cultured in complete medium with MSC. In protocol 3, H9c2 were cultured in presence of H2O2 during 4 hours in regular medium deprived in serum, which was continued for an extra 1 hour. Then the co-culture of H9c2 with MSC was performed in complete medium for 1 hour. At the end of all protocols, H9c2 were recovered for apoptosis and RT-qPCR analysis.
DNA fragmentation was quantified in vitro on cell lysates with an enzyme-linked immunosorbent assay kit (Cell Death ELISA; Roche Diagnostics) designed to measure of histone-complexed DNA fragments (mono- and oligonucleosomes) out of the cytoplasm of cells after the induction of apoptosis.
To determine the role of PPARβ/δ on MSC-induced protective effect on cardiomyocytes we designed and developed three protocols in order to mimic the stress received by MSC when transplanted into infarcted tissues. The first protocol consisted in co-culturing naive or primed MSC with H9c2 exposed to 350 μM of H2O2 for 4 hours using transwell. The second protocol consisted in exposing […] μM of H2O2 for 4 hours before to co-culture them with naive or primed MSC in a complete medium. The third protocol consisted in exposing H9c2 to 350 μM of H2O2 for 4 hours followed by serum deprivation for 1 hour before to co-culture them with naive or primed MSC in a complete medium (FIG. 7A).

SMILES: Cc1cc(SCc2sc(-c3ccc(C(F)(F)F)cc3)nc2C)ccc1OCC(=O)O [GW501516]
- Carcinogenicity [1]: caused cancer to develop rapidly in several organs
- Carcinogenicity [2]: caused cancer to develop rapidly in several organs
- Infarct size, mean value ([3]; MSC preconditioned 24 h (1-day) with 0.1 μM, n=7): 37.4 % of LV mass
- Decrease in infarct size ([3]; MSC preconditioned 24 h with 0.1 μM): 52.8%
- Decrease in infarct size ([3]; MSC preconditioned 4 days (96 h) with 0.1 μM): 54.5%
- Infarct size, mean value ([3]; MSC preconditioned 4 days with 0.1 μM, n=8): 36.05%
- Protection from H2O2-induced cell death [4]: protect the cardiomyoblast cell line H9c2 from H2O2-induced cell death

SMILES: O=C(NCCS(=O)(=O)c1ccc(C(F)(F)F)cn1)c1ccc(Cl)cc1 [GSK3787]
- Specific DNA fragmentation in H9c2 (anti-apoptotic effect of MSC) (H9c2 cardiomyocytes; protocol 1: MSC pretreated 24 h with 1 μM, co-cultured with H9c2 under 350 μM H2O2 4 h): lose their capacity to protect cardiomyocytes from apoptosis
- Specific DNA fragmentation in H9c2 (anti-apoptotic effect of MSC) (H9c2 cardiomyocytes; protocol 2: H9c2 exposed to 350 μM H2O2 4 h, then co-culture in complete medium with MSC pretreated with 1 μM): did not change MSC protective properties
- Specific DNA fragmentation in H9c2 (anti-apoptotic effect of MSC) (H9c2 cardiomyocytes; protocol 3: H9c2 350 μM H2O2 4 h, serum deprivation 1 h, then co-culture in complete medium with MSC pretreated with 1 μM): lose their capacity to protect cardiomyocytes from apoptosis
